Measurements published in patent US20190031618A1, “BENZIMIDAZOLE DERIVATIVES USEFUL AS CB-1 INVERSE AGONISTS” (Janssen Pharmaceutica NV, priority 2015, published 2019).

How the values were obtained:
[1] = molecular target: Human CB2R (Cannabinoid receptor 2) (Homo sapiens, UniProt P34972); assay: CB-2 in vitro cAMP (HTRF) assay; assay type: cell-based; details: HEK cells, cAMP HTRF, 250 nM forskolin; mean where tested more than once; read-out: CB2 HEK_cAMP EC50
Excerpt: (§1) CB1 and CB2 receptors are Gi-coupled GPCR. Activation of CB1 and CB2 receptors results in a decrease in cAMP production. An inverse agonist of the CB1 or CB2 receptor results in the opposite effect, an increase of cAMP production. The principle of this assay is based on HTRF® technology (Homogeneous Time-Resolved Fluorescence). The method is a competitive immunoassay between native cAMP produced by cells and the cAMP labeled with the fluorophore d2. The tracer binding is quantified by a Mab anti-cAMP labeled with Eu3+TBP-NHS Cryptate (supplied as part of the assay kit). The specific signal (i.e. energy transfer) is inversely proportional to the concentration of cAMP in the standard or sample.
Human CB1R (Cannabinoid receptor 1) was stably transfected in HEK-293 cells (DiscoveRx, cat: 93-0200C1). Human CB2R (Cannabinoid receptor 2) was stably transfected in HEK-293 cells (DiscoveRx, cat: 93-0201C1). Cell cultures were maintained in media: DMEM (Invitrogen Cat#12430-054) supplemented with 10% HI FBS (Invitrogen Cat#16140-071), 1% L-glutamine (Invitrogen Cat#25030-081), 0.2 mg/ml Hygromycin B (Invitrogen Cat#10687-010), 600 μg/mL G418 (Invitrogen Cat#10131-035), and 1× Penn/Strep (Invitrogen 15140-122). After cell expansion, aliquots were cryo-stored in media containing 5% DMSO (Pierce Cat#20684).
(§2) One day prior to experiments media was warmed to 37° C. and the cryo-stored cells were thawed in a 37° C. water bath. The cells were then added to media (10× volume) and the mixture was centrifuged at 1000 RPM for 5 min. The supernate was removed and the cells were re-suspended in media. A sample of the cell suspension was evaluated on a Cedex XS automated cell counter (Innovatis Systems) to determine viable cells/ml. Additional media was added to the cells to achieve a final cell density of 4E5 cells/mL. The cells were then plated into 384 well PDL white solid bottom plates (Greiner, Cat#781945) at 20 μL per well using a Multidrop (Thermo Scientific). Cells were removed from Row P (location of cAMP standards). Two columns of cells were plated into a clear bottom 384 well PDL coated plate (Greiner, Cat#781944) to view confluence the day of the assay. The cell plates were lidded and stored for 15 minutes in a hood, then transferred to an incubator (37° C., 5% CO2, 95% humidity) overnight.
DMSO was added to all wells of 384 well V bottom polystyrene plate (Greiner, Cat#781280) except to columns 1 and 13, rows O and P and wells M13-M23 and N13-N23. Test compounds (60 μL, 10 mM) were added to Column 1 and 13 (A1 through N1 and A13 through L13). Test compounds were serially diluted 1/3 by transferring and mixing 20 μl sample with 40 μL DMSO.
DMSO (40 μL) was added to wells of 384 well V bottom polystyrene plate: O2 through O11, M14 through M23, N14 through N23, and O14 through O23. AM630 (also known as [6-iodo-2-methyl-1-[2-(4-morpholinyl)ethyl]-1H-indol-3-yl](4-methoxyphenyl)-methanone, Cayman Chemical, Cat#10006974) (60 μL, 10 mM) was added to O1; and 1-(2,4-dichlorophenyl)-7-[(4-fluorophenyl)methylene]-4,5,6,7-tetrahydro-N-1-piperidinyl-1H-benzimidazole-3-carboxamide (60 μL, 10 mM) was added to N13. The control was serially diluted 1/3 by transferring and mixing 20 μl sample with 40 μL DMSO. This process resulted 11 doses per control, 10 mM to […].
Cells plated the day prior to the assay in clear bottom plates were viewed on an inverse microscope to ensure confluency in the range of 60-75%. […]

[2] = molecular target: Human CB1R (Cannabinoid receptor 1) (Homo sapiens, UniProt P21554); assay: CB-1 in vitro cAMP (HTRF) assay; assay type: cell-based; details: HEK cells, cAMP HTRF, 250 nM forskolin; mean where tested more than once; read-out: CB1 HEK_cAMP EC50
Excerpt: as §1
Human CB1R (Cannabinoid receptor 1) was stably transfected in HEK-293 cells (DiscoveRx, cat: 93-0200C1). Human CB2R (Cannabinoid receptor 2) was stably transfected in HEK-293 cells (DiscoveRx, cat: 93-0201C1).
as §2, with “The cells were then plated into 384 well PDL white solid bottom plates (Greiner, Cat#781945) at 20 μL per well using a Multidrop (Thermo Scientific).” left out, “Two columns of cells were plated into a clear bottom 384 well PDL coated plate (Greiner, Cat#781944) to view confluence the day of the assay.” left out
Test compounds (60 μL, 10 mM) were added to Column 1 and 13 (A1 through N1 and A13 through L13). Test compounds were serially diluted 1/3 by transferring and mixing 20 μl sample with 40 μL DMSO.
DMSO (40 μL) was added to wells of 384 well V bottom polystyrene plate: O2 through O11, M14 through M23, N14 through N23, and O14 through O23. […] The control was serially diluted 1/3 by transferring and mixing 20 μl sample with 40 μL DMSO. This process resulted 11 doses per control, 10 mM to 0.5 μM.
Cells plated the day prior to the assay in clear bottom plates were viewed on an inverse microscope to ensure confluency in the range of 60-75%.
A FLEXDROP (Perkin Elmer) was cleaned with ethanol then water, and primed with Buffer 2. A 384 well V bottom polypropylene plate containing d2 labelled cAMP and a second 384 well V bottom polypropylene plate containing anti-cAMP was prepared (50 μl per well). Media as “dumped” from the cell plate and 30 μL Buffer 1 was added to each well using a Multidrop. The content of the cell plate was again “dumped” and 10 μL Buffer 2 was added to each well using a Flexdrop. […] The cell plate was mixed (Speed 6, Lab-Line Instruments Titer Plate Shaker) and centrifuged (1000 RPMs, 1 min). […] The cell plate was again mixed (speed 6) and centrifuged (1000 RPMs, 1 min). The cell plate was incubated for 30 minutes at room temperature (˜27° C.). The contents of row P were removed and the cAMP standard dilutions were added in duplicate to Row P (P1-12 and P13-24). After incubation, 6 μL d2 labelled cAMP and 6 μL of Anti-cAMP were added to all wells of the cell plate using a BioMek FX (Beckman Coulter). The cell plate was again mixed (speed 6) and centrifuged (1000 RPMs, 1 min) and was incubated for 60 minutes in the dark at room Temp (˜27° C.).
After this final incubation, the cell plate was read in HTRF mode (fluorescence at 665 nm and 620 nm) on an Envision plate Reader (Perkin Elmer). The Envision reader outputs a ratio of channel 1/channel 2 fluorescence×10,000 (Normalized signal (NS)). Amount of cAMP in nM was calculated for each well (based on NS) from a cAMP standard curve located on each plate (at P1-12 and P13-24). EC50 values were determined from a 4-point fit (Hill equation) of a single 11-point compound dosing. Hill slope was fixed at 1.0.

Chain of Human CB2R (Cannabinoid receptor 2) (P34972 whole entry): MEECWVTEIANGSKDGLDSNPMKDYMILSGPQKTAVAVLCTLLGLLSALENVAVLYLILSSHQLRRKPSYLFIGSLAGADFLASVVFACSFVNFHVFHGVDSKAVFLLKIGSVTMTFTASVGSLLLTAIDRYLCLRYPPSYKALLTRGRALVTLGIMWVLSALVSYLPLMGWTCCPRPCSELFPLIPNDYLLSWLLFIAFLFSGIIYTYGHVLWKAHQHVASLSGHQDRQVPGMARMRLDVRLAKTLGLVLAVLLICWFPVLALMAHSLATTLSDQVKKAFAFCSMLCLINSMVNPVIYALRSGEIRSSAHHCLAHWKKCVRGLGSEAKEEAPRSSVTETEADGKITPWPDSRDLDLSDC
Chain of Human CB1R (Cannabinoid receptor 1) (P21554 whole entry): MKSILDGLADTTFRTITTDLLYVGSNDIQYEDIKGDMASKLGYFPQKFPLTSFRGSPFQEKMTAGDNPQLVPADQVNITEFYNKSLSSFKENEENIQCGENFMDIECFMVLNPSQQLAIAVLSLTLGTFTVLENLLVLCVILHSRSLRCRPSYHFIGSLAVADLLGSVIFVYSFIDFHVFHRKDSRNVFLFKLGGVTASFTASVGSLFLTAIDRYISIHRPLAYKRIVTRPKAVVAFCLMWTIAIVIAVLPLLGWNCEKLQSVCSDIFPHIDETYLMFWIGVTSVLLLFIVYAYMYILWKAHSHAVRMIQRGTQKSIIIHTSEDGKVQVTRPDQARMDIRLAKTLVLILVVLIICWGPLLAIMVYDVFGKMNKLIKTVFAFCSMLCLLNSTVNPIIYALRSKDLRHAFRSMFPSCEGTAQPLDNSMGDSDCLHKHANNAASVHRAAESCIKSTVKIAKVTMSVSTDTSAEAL

Row | SMILES | EC50 [1] [µM] | EC50 [2] [µM]
1 | NC(=O)c1ccc(CN2CCC(n3c(C4CC4)nc4ccc(C(c5ccc(Cl)cc5)c5ccc(Cl)cc5)cc43)CC2)o1 [Example 131] | 6.5 | 0.008
2 | O=C(O)c1ccc(-c2cccc(S(=O)(=O)NCCCn3c(C4CC4)nc4ccc(C(c5ccc(Cl)cc5)c5ccc(Cl)cc5)cc43)c2)cc1 [Example 8] | 0.0782 | 0.0339
3 | O=C(O)c1ccc(CN2CCC(n3c(C4CC4)nc4ccc(C(c5ccc(Cl)cc5)c5ccc(Cl)cc5)cc43)CC2)cn1 [Example 106] | > 10 | 0.0601
4 | Clc1ccc(C(c2ccc(Cl)cc2)c2ccc3nc(C4CC4)n(C4CCOCC4)c3c2)cc1 [Example 119] | 6.74 | 0.0949
5 | O=C(O)c1ccc(S(=O)(=O)N2CCC(n3c(C4CC4)nc4ccc(C(c5ccc(Cl)cc5)c5ccc(Cl)cc5)cc43)CC2)cc1Cl [Example 253] | 2.42 | 0.0047
6 | O=C(NCCCO)c1cccc(S(=O)(=O)N2CCC(n3c(C4CC4)nc4ccc(C(c5ccc(Cl)cc5)c5ccc(Cl)cc5)cc43)CC2)c1 [Example 191] | > 10 | 0.021
7 | COC(=O)c1ccc(OCCn2c(C3CC3)nc3ccc(C(c4ccc(Cl)cc4)c4ccc(Cl)cc4)cc32)nc1 [Example 34] | 6.8 | 0.0375
8 | FC(F)(F)c1ccccc1CN1CCC(n2c(C3CC3)nc3ccc(C(c4ccc(Cl)cc4)c4ccc(Cl)cc4)cc32)CC1 [Example 84] | > 10 | 0.0677
9 | Nc1cccc(S(=O)(=O)N2CCC(n3c(C4CC4)nc4ccc(C(c5ccc(Cl)cc5)c5ccc(Cl)cc5)cc43)CC2)c1 [Example 52] | > 10 | 0.0092
10 | O=C(c1nc[nH]n1)N1CCC(n2c(C3CC3)nc3ccc(C(c4ccc(Cl)cc4)c4ccc(Cl)cc4)cc32)CC1 [Example 201] | 0.99 | 0.0638
11 | O=C(O)CN1CCC(n2c(C3CC3)nc3ccc(C(c4ccc(Cl)cc4)c4ccc(Cl)cc4)cc32)CC1 [Example 63] | > 21 | > 10
12 | O=C(O)c1ccc(C(F)(F)F)c(CN2CCC(n3c(C4CC4)nc4ccc(C(c5ccc(Cl)cc5)c5ccc(Cl)cc5)cc43)CC2)c1 [Example 80] | 11.4 | 0.0866
13 | O=C(O)c1cccc(CN2CCC(n3c(C4CC4)nc4ccc(C(c5ccc(Cl)cc5)c5ccc(C(F)(F)F)cc5)cc43)CC2)c1 (centres unmarked) [Example 99] | 4.74 | 0.0188
14 | Cc1ccc(C(c2ccc(Cl)cc2)c2ccc3nc(C4CC4)n(C4CCN(Cc5cccc(C(=O)O)c5)CC4)c3c2)cc1 (centres unmarked) [Example 100] | 6.3 | 0.0194
15 | NC(=O)COc1ccc(-n2c(C3CC3)nc3ccc(C(c4ccc(Cl)cc4)c4ccc(Cl)cc4)cc32)cc1 [Example 169] | 7.9 | 0.045
16 | O=S(=O)(c1ccc(O)c(F)c1)N1CCC(n2c(C3CC3)nc3ccc(C(c4ccc(Cl)cc4)c4ccc(Cl)cc4)cc32)CC1 [Example 220] | 5.84 | 1.37
17 | CC(c1cccc(C(=O)O)c1)N1CCC(n2c(C3CC3)nc3ccc(C(c4ccc(Cl)cc4)c4ccc(Cl)cc4)cc32)CC1 (single isomer, unassigned) [Example 47] | 17.1 | 0.0024
18 | NC(=O)c1ccc(CN2CCC(n3c(C4CC4)nc4ccc(C(c5ccc(Cl)cc5)c5ccc(Cl)cc5)cc43)CC2)nc1 [Example 122] | 9.1 | 0.0049

Further lines, results first:

Row | EC50 [1] [µM] | EC50 [2] [µM] | SMILES
19 | > 10 | 0.0643 | Clc1ccc(C(c2ccc3nc(C4CC4)n(-c4cccc(Cl)c4)c3c2)c2nccs2)cc1 (centres unmarked) [Example 432]
20 | > 10 | 6.02 | CC(c1ccc(Cl)cc1)n1c(C2CC2)nc2ccc(C(c3ccc(Cl)cc3)c3nccs3)cc21 (centres unmarked) [Example 401]
21 | > 7.4 | 2.41 | Cc1nc2ccc(C(c3ccc(Cl)cc3)c3nc(C(F)(F)F)cs3)cc2n1Cc1ccc(Cl)cc1 (centres unmarked) [Example 455]
22 | > 10 | > 10 | CC(C)(C)c1csc(C(c2ccc(Cl)cc2)c2ccc3ncn(Cc4ccc(Cl)cc4)c3c2)n1 (centres unmarked) [Example 449]
23 | 5.2 | 0.0034 | FC(F)(F)c1ccc(CCn2c(C3CC3)nc3ccc(C(c4ccc(Cl)cc4)c4ccc(Cl)cc4)cc32)cc1 [Example 309]
24 | > 10 | > 10 | Clc1ccc(C(c2ccc3nc(-c4ccco4)n(-c4cccc(Cl)c4)c3c2)c2nccs2)cc1 (centres unmarked) [Example 377]
25 | > 10 | 0.473 | Cc1nc2ccc(C(c3ccc(Cl)cc3)c3nccs3)cc2n1-c1cccc(Cl)c1 (centres unmarked) [Example 436]
26 | 3.88 | 0.0102 | O=S(=O)(N1CCC(Cn2c(C3CC3)nc3ccc(C(c4ccc(Cl)cc4)c4nccs4)cc32)CC1)C(F)(F)F (centres unmarked) [Example 324]
27 | > 7.2 | 0.212 | Clc1ccc(Cn2c(-c3ccc(Cl)cc3)nc3ccc(C(c4ccc(Cl)cc4)c4nccs4)cc32)cc1 (centres unmarked) [Example 464]
28 | > 10 | 0.569 | Clc1ccc(C(c2ccc3nc(C4CC4)n(Cc4ccccn4)c3c2)c2nccs2)cc1 (centres unmarked) [Example 403]
